Here are results for one compound from patent US9439906B2, “Dosing regimen associated with long acting injectable paliperidone esters” (Janssen Pharmaceutica NV, priority 2007, dated 2016).

Structures are written as SMILES. pKd: −log10 of the molar value.

The target of this experiment is D2 receptor (Homo sapiens, UniProt P14416). Nature of the experiment: PET central D2 occupancy studies SWE-1 and SIV-101. It is filed as in vivo. An excerpt:
It has been empirically derived and is currently widely excepted that 65-70% occupancy is needed for antipsychotics to show clinical efficacy (Farde et al.), i.e. improvement on the PANSS scale. A too high occupancy (80-85%) will typically increase the risk to develop EPS. In order to determine the central D2 occupancy, PET trials in human healthy volunteers are typically performed.

D2 receptor, sequence (P14416 whole entry): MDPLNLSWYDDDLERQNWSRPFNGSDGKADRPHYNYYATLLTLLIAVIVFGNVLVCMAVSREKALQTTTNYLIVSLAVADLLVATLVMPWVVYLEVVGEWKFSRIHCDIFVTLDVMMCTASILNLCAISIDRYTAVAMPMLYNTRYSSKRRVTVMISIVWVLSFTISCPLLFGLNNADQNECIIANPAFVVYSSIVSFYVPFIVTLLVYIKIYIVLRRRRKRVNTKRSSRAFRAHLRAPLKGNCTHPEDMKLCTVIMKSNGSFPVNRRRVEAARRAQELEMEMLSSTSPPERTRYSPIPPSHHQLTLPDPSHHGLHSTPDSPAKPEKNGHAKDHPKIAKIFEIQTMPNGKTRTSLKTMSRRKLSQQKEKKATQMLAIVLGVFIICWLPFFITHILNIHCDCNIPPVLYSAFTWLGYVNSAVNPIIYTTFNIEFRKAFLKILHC

The term pKd denotes −log10 of the Kd, conventionally taken in molar units. On to `Cc1nc2n(c(=O)c1CCN1CCC(c3noc4cc(F)ccc34)CC1)CCCC2O` (centres unmarked) [paliperidone, 9-hydroxy-risperidone], for which the negative-log Kd (pKd) is 7.82 to 7.99. The “exposure range for efficacy without an increased risk to develop EPS (target exposure range)” value (calculated using the 65-85% D2 occupancy window) was 7.5 to 40 ng/mL.
